# Columns and labels:
# Format in all cases: in vivo, mouse
# [1] = system: Aβ40 and Aβ42; assay: Brain (cerebral cortex) Aβ40 and Aβ42 by ELISA; settings: after 15 months of treatment (19 months of age)
# Experimental: (§1) The study was performed on Ts65Dn male, using the administration of CHF 5074 in the diet (375 ppm, equivalent to approximately 60 mg/kg/day).
# (§2) The treatment started at 2 to 3 months of age and it was chronically administered in the diet for 15 months, until 19 months of age.
# (§3) Treatment groups were: • Wild-type mice receiving standard diet (N=20) • Wild-type mice receiving CHF 5074-medicated diet (375 ppm, approximately 60 mg/kg/day) (N=20) • Ts65Dn mice receiving standard diet (N=20) • Ts65Dn mice receiving CHF 5074-mediacted diet (375 ppm, approximately 60 mg/kg/day) (N=20)
# (§4) Aβ40 and Aβ42 were measured by ELISA in plasma and brain extracts (IBL kit for mouse Aβ40/Aβ42);
# FIGS. 7 A, B, C, and D illustrates the brain (cerebral cortex) levels of Aβ40 and Aβ42 in animals after 15 months of treatment (19 months of age). Results are expressed as pmol/gr proteins (panels A and B), and as fmol/g wet tissue (panels C and D). There was a substantial increase in Aβ40 and Aβ42 brain levels in Ts65Dn mice compared to wild-type animals.
# [2] = system: APP mRNA; assay: APP mRNA expression by real-time PCR in hippocampus and basal ganglia; settings: wild-type animals, medicated diet for 15 months
# Experimental: Molecular biology markers were measured in hippocampus and basal ganglia by real-time PCR, according to Massella A et al., BMC Neuroscience 2012; 13: 12; and D'Intino G et al., J Neuroendocrinol 2011; 23: 778-790, both of which are incorporated herein by reference in their entireties.
# [3] = system: Amyloid precursor protein intracellular domain (AICD); assay: AICD immunoreactivity in CA1/2 hippocampal neurons; settings: CA1/2 hippocampal regions, Ts65Dn mice, p<0.0001
# Experimental: Amyloid precursor protein intracellular domain (AICD) (cleavage sites C83 and C99) in hippocampus.
# Quantification was carried out by counting the percentage of neurons having AICD-positivity.
# [4] = system: Ts65Dn mice; assay: Y-maze test, spatial learning and memory
# Experimental: as §1, §2, §3
# (§5) Animals were provided by Jackson Laboratory, Bar Harbor, Me., USA) in small cohorts. Ts65Dn segmental male trisomic mice were used. Ts65Dn mice were compared with diploid controls from the same litters.
# Spatial learning and memory were assessed with the Y-maze test according to Stewart S et al., J Alzheimer Dis 2011; 26: 105-126, which is incorporated herein by reference in its entirety.
# Animals were tested in a single trial Y maze task, to measure arm entries (A) and alternation (B). The percentage of spontaneous alternations is defined as (total alternations/total arm entries-2)×100.
# [5] = system: Vesicular GABA transporter (VGAT); assay: VGAT immunostaining in hippocampus; settings: CA1/2 hippocampus, Ts65Dn mice, after 15 months of treatment
# Experimental: as §1, §2, §3
# (§6) Brain morphology was assessed by immunohistochemistry, immunofluorescence and quantitative morphometry and microdensitometry according to Imbimbo B P et al., J Alzheimer Dis 2010; 20:159-173; Sivilia S et al., BMC Neurosci 2013; 14: 44; and Guidi S et al., Brain 2014; 137: 380-401, all of which are incorporated herein by reference in their entireties. The following proteins were investigated:
# Vesicular GABA transporter (VGAT), as marker of GABAergic synapses in hippocampus;
# (§7) FIG. 10 illustrates main markers of synaptic transmission in the CA1/2 regions of the hippocampus after 15 months of treatment (19 months of age). […] Panel B reports the variation of immunostaining for the glutamate transporter VGLUT1 with a substantial decrease in Ts65Dn mice compared to wild-type animals. […]
# [6] = system: Aβ40 and Aβ42; assay: Plasma Aβ40 and Aβ42 by ELISA
# Experimental: as §1, §2, §3, §4
# FIGS. 6 A and B illustrates the plasma levels of Aβ40 and Aβ42 peptides in animals after 15 months of treatment (19 months of age). There was a substantial increase in Aβ40 and Aβ42 plasma levels in Ts65Dn mice compared to wild-type animals.
# [7] = system: Ts65Dn mice; assay: CatWalk computerized gait analysis, locomotion
# Experimental: as §1, §2, §3, §5
# Locomotion deficits were assessed with the CatWalk technology (gait analysis) according to Faizi M et al., Neurobiol Dis 2011; 43: 397-413, which is incorporated herein by reference in its entirety.
# The print area of front and hind paws is presented, as corrected according to the individual animal body weight. […] CHF 5074 treatment normalized this gait parameter.
# [8] = system: Synaptophysin; assay: Synaptophysin immunostaining in hippocampus; settings: CA1/2 hippocampus, after 15 months of treatment, between experimental groups
# Experimental: as §1, §2, §3, §6
# Synaptophysin. It is a pre-synaptic vesicle membrane protein known to mediate vesicle release in hippocampus;
# as §7
# [9] = system: Glial fibrillary acidic protein (GFAP); assay: Reactive astrocytes, GFAP immunoreactivity in hippocampus; settings: CA1/2 hippocampus, aged Ts65Dn mice, diet 375 ppm, vs Ts65Dn on standard diet
# Experimental: as §1, §2, §3, §6
# Glial fibrillary acidic protein (GFAP) as astrocyte marker in hippocampus;
# [10] = system: Ionized calcium binding adaptor molecule 1 (Iba1); assay: Activated microglia, Iba1 immunoreactivity in hippocampus; settings: CA1/2 hippocampus, aged Ts65Dn mice, diet 375 ppm, vs Ts65Dn on standard diet
# Experimental: as §1, §2, §3, §6
# Ionized calcium binding adaptor molecule 1 (Iba1), as microglia marker in hippocampus;
# [11] = system: total APP/Aβ40/Aβ42 peptides; assay: Intraneuronal APP immunohistochemistry and microdensitometry in cerebral cortex; settings: Ts65Dn mice treated vs control transgenic animals
# Experimental: Intraneuronal APP was measured by immunohistochemistry and computerized microdensitometry (Chemicon clone 22C11) in cerebral cortex;
# [12] = wild-type and Ts65Dn mice, after 15 months of treatment (19 months of age)
smiles,measurement,setting,value
"O=C(O)C1(c2ccc(-c3ccc(Cl)c(Cl)c3)c(F)c2)CC1 [CHF 5074, 1-(3′,4′-dichloro-2-fluorobiphenyl-4-yl)cyclopropanecarboxylic acid]",brain Aβ40 levels,[1],did not modify significantly
same,brain Aβ42 levels,[1],did not modify significantly
same,APP mRNA levels,[2],slightly but significantly increased
same,increase in percentage of AICD-positive neurons,[3],significantly attenuated
same,spontaneous alternation in Y maze (spatial memory),"[4]; CHF 5074 in diet 375 ppm (approx. 60 mg/kg/day), tested after 6, 9 and 15 months of treatment",progressively normalized
same,spontaneous alternation in Y maze compared to wild-type mice,"[4]; diet 375 ppm, after 15 months of treatment",not significantly different
same,spatial memory deficit (study summary),[4]; prolonged oral treatment,attenuated
same,increase of immunostaining for the GABA transporter VGAT,[5],completely reversed
same,plasma level of Aβ40,[6]; [12],further increased
same,plasma level of Aβ42,[6]; [12],further increased
same,significance of the increase in plasma Aβ42,"[6]; wild-type animals, after 15 months of treatment",significant
same,"hind paw print area (gait parameter, corrected for body weight)","[7]; diet 375 ppm, after 15 months of treatment (19 months of age)",normalized
same,locomotion deficit (study summary),[7]; prolonged oral treatment,completely reversed
same,synaptophysin levels,[8],no significant differences
same,GFAP-immunoreactivity (reactive astrocytes),[9],substantial reduction
same,Iba1-immunoreactivity (activated microglia),[10],substantial reduction
same,intracellular immunoreactivity of total APP/Aβ40/Aβ42 peptides in cortical neurons,[11],significant decrease

# Reference: patent US20150335596A1, “1-(2-FLUOROBIPHENYL-4-YL)-CYCLOPROPANECARBOXYLIC ACID DERIVATIVES FOR THE TREATMENT OF DOWN'S SYNDROME” (CHIESI FARMACEUTICI S.P.A., priority 2014, published 2015)
